Values quoted from earlier work, collected in patent US9403744B2, “Process for the production of alkyl ethers by the etherification of isobutene” (SAIPEM S.p.A., priority 2006, dated 2016).

Conditions: in water

Row | Structure (SMILES) | Solubility in H2O [w %]
1 | CCOC(C)(C)C [ETBE, ethyl ter-butyl ether] | 1.2
2 | CCC(C)(C)OC [TAME, methyl ter-amyl ether] | 1.1
